Laboratory results reported in ChEMBL document CHEMBL3526034 (Drug Metab Dispos, 2013).
One block for each molecule: values may come before it.

Key:
[1] = Drug level in human urine treated with parent drug [14C]DTG at 20 mg, po; assay type: ADME, tissue-based; settings: in vivo
[2] = target: UDP-glucuronosyltransferase 1A3 (Homo sapiens, UniProt P35503); experiment: Drug level assessed as UDPGA-fortified human recombinant UGT1A3-mediated compound formation treated with [14C]DTG at 16 uM after 120 mins by radio-HPLC analysis; assay type: ADME; settings: recombinant enzyme, 2 h
[3] = target: UDP-glucuronosyltransferase 1A9 (Homo sapiens, UniProt O60656); experiment: Drug level assessed as UDPGA-fortified human recombinant UGT1A9-mediated compound formation treated with [14C]DTG at 16 uM after 120 mins by radio-HPLC analysis; assay type: ADME; settings: recombinant enzyme, 2 h
Hepatocyte = experiment: Drug level in human hepatocytes treated with [14C]DTG at 50 uM after 4 to 20 hrs by radio-HPLC analysis; assay type: ADME, cell-based
[4] = target: T1, UDP-glucuronosyltransferase 1A1 (Homo sapiens, UniProt P22309); experiment: Drug level assessed as UDPGA-fortified human recombinant UGT1A1-mediated compound formation treated with [14C]DTG at 16 uM after 120 mins by radio-HPLC analysis; assay type: ADME; settings: recombinant enzyme, 2 h
T1 sequence (P22309 whole entry): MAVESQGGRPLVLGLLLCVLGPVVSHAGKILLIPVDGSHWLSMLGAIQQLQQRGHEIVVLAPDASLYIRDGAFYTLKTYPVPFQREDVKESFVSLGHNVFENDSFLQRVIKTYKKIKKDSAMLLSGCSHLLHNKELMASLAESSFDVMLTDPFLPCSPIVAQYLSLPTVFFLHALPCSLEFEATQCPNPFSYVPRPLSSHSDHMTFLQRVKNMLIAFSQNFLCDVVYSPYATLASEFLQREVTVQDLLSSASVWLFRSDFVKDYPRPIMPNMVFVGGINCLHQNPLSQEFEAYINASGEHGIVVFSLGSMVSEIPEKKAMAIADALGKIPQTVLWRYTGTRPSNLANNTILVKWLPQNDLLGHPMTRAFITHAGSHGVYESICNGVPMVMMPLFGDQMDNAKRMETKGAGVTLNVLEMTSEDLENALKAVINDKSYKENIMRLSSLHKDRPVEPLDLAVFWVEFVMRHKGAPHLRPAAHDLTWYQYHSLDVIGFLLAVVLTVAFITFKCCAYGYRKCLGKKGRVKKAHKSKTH

Liver microsome [5] = experiment: Drug level in UDPGA-fortified human liver microsomes treated with [14C]DTG at 16 uM treated for 4 hrs by radio-HPLC analysis; assay type: ADME
Liver microsome [6] = experiment: Drug level in human liver microsomes treated with [14C]DTG at 5 uM after 120 mins by radio-HPLC analysis; assay type: ADME; settings: 2 h
Cytochrome P450 3A4 = Cytochrome P450 3A4 (Homo sapiens, UniProt P08684); experiment: Drug level in supersomes expressing human recombinant CYP3A4 treated with [14C]DTG at 5 uM after 120 mins by radio-HPLC analysis; assay type: ADME; settings: recombinant enzyme, 2 h
[7] = substrate: C[C@@H]1CCO[C@H]2Cn3cc(C(=O)NCc4ccc(F)cc4F)c(=O)c(O)c3C(=O)N12; experiment: (§1) Drug metabolism assessed as human recombinant UGT1A1-mediated DTG glucuronide M2 ((2S,3S,4S,5R,6S)-6-((4R,12aS)-9-(2,4-difluorobenzylcarbamoyl)-4-methyl-6,8-dioxo-3,4,6,8,12,12a-hexahydro-2H-[1,3]oxazino[3,2-d]pyrido[1,2-a]pyrazin-7-yloxy)-3,4,5-trihydroxytetrahydro-2H-pyran-2-carboxylic acid) formation after 120 mins by radio-HPLC analysis; assay type: ADME
[8] = substrate: C[C@@H]1CCO[C@H]2Cn3cc(C(=O)NCc4ccc(F)cc4F)c(=O)c(O)c3C(=O)N12; experiment: as §1, with “metabolism in UDPGA-fortified human liver microsomes” for “metabolism”, “as” for “as human recombinant”; assay type: ADME

Chain of UDP-glucuronosyltransferase 1A3 (P35503 whole entry): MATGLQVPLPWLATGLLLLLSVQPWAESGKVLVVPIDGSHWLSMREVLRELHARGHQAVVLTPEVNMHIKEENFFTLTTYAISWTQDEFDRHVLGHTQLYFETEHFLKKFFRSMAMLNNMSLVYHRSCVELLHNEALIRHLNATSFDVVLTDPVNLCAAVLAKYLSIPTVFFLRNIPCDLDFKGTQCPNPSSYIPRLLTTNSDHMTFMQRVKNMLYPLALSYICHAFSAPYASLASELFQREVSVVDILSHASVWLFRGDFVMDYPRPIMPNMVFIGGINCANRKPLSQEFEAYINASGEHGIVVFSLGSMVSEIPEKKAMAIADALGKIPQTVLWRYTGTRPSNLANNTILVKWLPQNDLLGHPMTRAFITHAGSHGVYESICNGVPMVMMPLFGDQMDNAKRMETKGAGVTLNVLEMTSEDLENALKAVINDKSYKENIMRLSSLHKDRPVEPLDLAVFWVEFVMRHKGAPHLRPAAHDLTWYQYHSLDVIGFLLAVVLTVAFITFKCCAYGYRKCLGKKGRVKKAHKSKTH
Chain of UDP-glucuronosyltransferase 1A9 (O60656 whole entry): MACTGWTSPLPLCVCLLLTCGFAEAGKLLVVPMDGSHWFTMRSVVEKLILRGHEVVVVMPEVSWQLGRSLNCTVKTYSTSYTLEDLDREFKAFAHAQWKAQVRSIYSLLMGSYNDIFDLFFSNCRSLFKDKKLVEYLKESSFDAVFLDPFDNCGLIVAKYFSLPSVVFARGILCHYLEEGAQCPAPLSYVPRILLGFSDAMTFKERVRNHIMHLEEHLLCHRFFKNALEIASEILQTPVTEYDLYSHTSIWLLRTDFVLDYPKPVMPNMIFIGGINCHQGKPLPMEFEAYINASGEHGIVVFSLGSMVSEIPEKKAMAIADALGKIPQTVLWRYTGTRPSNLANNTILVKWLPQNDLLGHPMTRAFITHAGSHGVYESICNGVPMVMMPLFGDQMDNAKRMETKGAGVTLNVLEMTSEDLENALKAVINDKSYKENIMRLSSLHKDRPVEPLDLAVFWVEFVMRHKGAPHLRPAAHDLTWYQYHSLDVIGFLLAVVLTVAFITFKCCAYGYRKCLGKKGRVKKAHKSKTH
Chain of Cytochrome P450 3A4 (P08684 whole entry): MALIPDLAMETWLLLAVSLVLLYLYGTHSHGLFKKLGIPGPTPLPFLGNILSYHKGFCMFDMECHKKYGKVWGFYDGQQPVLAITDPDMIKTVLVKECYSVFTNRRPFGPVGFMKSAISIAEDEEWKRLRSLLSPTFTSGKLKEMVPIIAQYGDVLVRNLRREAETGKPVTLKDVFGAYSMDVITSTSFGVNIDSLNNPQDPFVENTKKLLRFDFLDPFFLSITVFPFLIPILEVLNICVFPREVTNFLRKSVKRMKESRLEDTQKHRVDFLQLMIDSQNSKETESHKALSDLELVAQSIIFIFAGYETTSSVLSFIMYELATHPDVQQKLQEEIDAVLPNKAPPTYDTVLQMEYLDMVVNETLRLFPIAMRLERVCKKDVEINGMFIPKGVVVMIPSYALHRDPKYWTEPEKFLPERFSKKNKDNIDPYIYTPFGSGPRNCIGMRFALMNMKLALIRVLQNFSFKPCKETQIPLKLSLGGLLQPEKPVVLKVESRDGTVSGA

Drug excretion [1]: 18.9%
Drug metabolism [2]: metabolite_detected
Drug metabolism [3]: metabolite_detected
Drug metabolism (Hepatocyte): metabolite_detected
Drug metabolism [4]: metabolite_detected
Drug metabolism (Liver microsome [5]): metabolite_detected
Molecule: C[C@@H]1CCO[C@H]2Cn3cc(C(=O)NCc4ccc(F)cc4F)c(=O)c(O[C@@H]4O[C@H](C(=O)O)[C@@H](O)[C@H](O)[C@H]4O)c3C(=O)N12

Drug metabolism (Liver microsome [6]): metabolite_detected
Drug excretion [1]: 3%
Molecule: C[C@@H]1CCO[C@H]2Cn3cc(C(=O)NC(O)c4ccc(F)cc4F)c(=O)c(O)c3C(=O)N12 (some centres not stated)

Drug excretion [1]: 3.6%
Drug metabolism (Cytochrome P450 3A4): metabolite_detected
Molecule: C[C@@H]1CCO[C@H]2Cn3cc(C(N)=O)c(=O)c(O)c3C(=O)N12

B1: UDP-glucuronosyltransferase 1A1 (Homo sapiens) (protein)
chain: MAVESQGGRPLVLGLLLCVLGPVVSHAGKILLIPVDGSHWLSMLGAIQQLQQRGHEIVVLAPDASLYIRDGAFYTLKTYPVPFQREDVKESFVSLGHNVFENDSFLQRVIKTYKKIKKDSAMLLSGCSHLLHNKELMASLAESSFDVMLTDPFLPCSPIVAQYLSLPTVFFLHALPCSLEFEATQCPNPFSYVPRPLSSHSDHMTFLQRVKNMLIAFSQNFLCDVVYSPYATLASEFLQREVTVQDLLSSASVWLFRSDFVKDYPRPIMPNMVFVGGINCLHQNPLSQEFEAYINASGEHGIVVFSLGSMVSEIPEKKAMAIADALGKIPQTVLWRYTGTRPSNLANNTILVKWLPQNDLLGHPMTRAFITHAGSHGVYESICNGVPMVMMPLFGDQMDNAKRMETKGAGVTLNVLEMTSEDLENALKAVINDKSYKENIMRLSSLHKDRPVEPLDLAVFWVEFVMRHKGAPHLRPAAHDLTWYQYHSLDVIGFLLAVVLTVAFITFKCCAYGYRKCLGKKGRVKKAHKSKTH
Km [7]: 21 µM
Km [8]: 149 µM
